Test [1] has as its target T1, HIV reverse transcriptase (HIV RT) (Human immunodeficiency virus type 1 group M subtype B, UniProt P03366).
T1 construct: HIV RT polymerase was purchased from GE Healthcare; purchased GE Healthcare (Amersham Bioscience)
As to the kind of experiment: Single nucleotide incorporation by HIV RT, gel-based, P1/T1 (Examples 2-3). The test is classed as biochemical, HIV-1. The procedure: (§1) A typical single nucleotide incorporation and primer extension assays using HIV RT polymerase was carried out similar to one described in the literature. HIV RT polymerase was purchased from GE Healthcare and was supplied as either 12 or 30 U/μL stock solution. The final concentration of HIV RT in a reaction mixture was 0.03-0.003 U/μL. A primer/template duplex mixture was prepared by combining appropriate amounts of a 5′-^33P-labeled primer (P1) and a template in 1:2 molar ratio to provide a 4× solution with 0.5 μM primer concentration. The polymerase reactions were carried out in a 5×RT buffer containing 250 mM TRIS.HCL, 250 mM KCl, 50 mM MgCl2, 2.5 mM spermidine, 50 mM DTT, pH 8.3. For the single nucleotide incorporation assay, a P1/T1 primer-template pair was used whereas the primer extension study was performed with P1/T3 and P1/T5 primer-template pairs.
Briefly, a mixture containing 5 μL of the 4× primer/DNA duplex solution and 5 μL of 4× polymerase solution was pre-incubated at 37° C. for 2 minutes to ensure formation a DNA polymerase/DNA duplex complex. Simultaneously, 2× solutions of dNTP to provide final concentrations of 100 μM, 200 μM, 500 μM and 1 mM were also pre-incubated at 37° C. for 2 minutes as well. The polymerase reaction in a total volume of 20 μL was initiated by addition of 10 μL of the 2× dNTP solution to the DNA polymerase/DNA duplex mixture. The reactions were run at 37° C. and aliquots (2.5 μL) were removed at specified time points and mixed with 10 μL of a quenching buffer containing 80% formamide, 2 mM EDTA, 1×TBE. Quenched reactions were analyzed by loading 2 μL of a reaction sample onto a 20% denaturing polyacrylamide:gel (19:1 acrylamide:bisacrylamide, 7M urea, 0.4 mm×30 cm×40 cm) made in 1×TBE buffer (90 mM Tris-borate, 2 mM EDTA, pH 8.3). The gel was pre-equilibrated for 2 hours before loading and the reactions were run along with a tracking dye marker containing bromophenol blue (BB) and xylene cyanol (XC) until the BB dye had run ⅔ of the total gel length. For visualization, gels were scanned using a Cyclone Phosphoroimager.

Test [2] concerns the target T2, HIV RT (Human immunodeficiency virus type 1 group M subtype B, UniProt P03366).
T2 construct: HIV RT polymerase was purchased from GE Healthcare; purchased GE Healthcare (Amersham Bioscience)
The test can be described thus: Primer extension by HIV RT (P1/T3, P1/T5). In kind it is biochemical, HIV-1. The settings on record: T3 template. As for the experimental part: as §1
Primer extension study with HIV RT and Therminator DNA polymerase was performed in a fashion similar to the single nucleotide incorporation experiments. Two sets of primer/template complexes were used: P1/T3 and P1/T5.

Test [3] concerns the target Taq DNA polymerase (Thermus aquaticus, UniProt P19821). As to the kind of experiment: Single nucleotide incorporation by Taq DNA polymerase. The test is classed as biochemical. As for the experimental part: Reaction conditions: Primer (P1) was 5′-labeled with ^33P followed by annealing to a template T1; 125 nM primer/template (P1/T1), [Taq]=0.005 U/μL, [Vent]=0.005 U/μL, [KF]=0.05 U/μL; time intervals: 5, 15, 30, 60, 90 and 120 minutes.
In the case of Therminator DNA polymerase, the enzyme was obtained from Westburg (NEB) (2 U/μL) and the reactions were carried out in a 10× Thermopol reaction buffer containing 20 mM TRIS.HCl, 10 mM KCl, 2 mM MgSO4, 0.1% Triton X-100, pH 8.8. The final concentration of the Therminator DNA pol in the reaction mixture was 8.33×10^−4 U/μL. The polymerase reaction involving Therminator DNA polymerase or any other thermostable polymerase (Vent (exo^−), Taq DNA polymerase) was carried out in a similar way as the HIV RT reaction with some modifications. The dNTP solutions and the primer/template/DNA polymerase mixture solutions were topped with mineral oil (30-60 μL) and pre-incubated at 70° C. for 2 minutes. The polymerase reactions were performed at 70° C. as well.

Sequence of Taq DNA polymerase (P19821 whole entry): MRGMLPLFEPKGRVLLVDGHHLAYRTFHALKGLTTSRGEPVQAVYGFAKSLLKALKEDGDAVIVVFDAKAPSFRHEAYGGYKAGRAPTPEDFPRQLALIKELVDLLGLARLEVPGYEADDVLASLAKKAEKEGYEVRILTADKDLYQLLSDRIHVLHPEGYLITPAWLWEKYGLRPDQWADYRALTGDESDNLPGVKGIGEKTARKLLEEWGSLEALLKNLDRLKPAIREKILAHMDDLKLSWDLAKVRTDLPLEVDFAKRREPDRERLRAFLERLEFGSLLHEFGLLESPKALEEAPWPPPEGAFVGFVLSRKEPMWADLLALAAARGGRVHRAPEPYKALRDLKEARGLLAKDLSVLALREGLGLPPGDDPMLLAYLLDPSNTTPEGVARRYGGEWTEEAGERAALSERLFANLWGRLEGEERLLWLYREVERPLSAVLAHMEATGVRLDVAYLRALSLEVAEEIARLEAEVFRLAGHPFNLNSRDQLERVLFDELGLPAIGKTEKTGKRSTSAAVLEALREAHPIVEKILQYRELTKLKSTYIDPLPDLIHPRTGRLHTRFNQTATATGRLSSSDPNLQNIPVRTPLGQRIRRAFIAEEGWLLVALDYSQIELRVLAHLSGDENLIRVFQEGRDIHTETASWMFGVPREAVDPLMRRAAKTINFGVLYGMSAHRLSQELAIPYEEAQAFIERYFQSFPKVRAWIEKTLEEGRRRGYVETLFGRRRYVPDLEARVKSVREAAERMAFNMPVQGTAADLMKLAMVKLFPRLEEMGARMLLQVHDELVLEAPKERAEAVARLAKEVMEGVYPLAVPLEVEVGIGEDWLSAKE

With “2′-deoxy-adenosine-5′-aspartyl-phosphoramidate [Compound 1]”, in test [1] (500 μM nucleotide concentration, 60 min, P1/T1), the “conversion to a n+1 strand” value was found to be 90%. This substance registered an incorporation in test [1] (substrate concentration decreased 10 fold (from 500 μM)) of 24.1%. Also, in test [2], the “primer extension product” value is recorded as “extend a primer with three adenine nucleobases (n+3 product)”. Moreover, in test [2] (60 minutes, 500 μM substrate), the “(n+3) product” value worked out at 5.2% and the “n+2 product” value was found to be 56.3%. Moreover, in test [3], the “insertion into a growing primer strand” value is given as “failed to insert”.
